Reference: patent US8436195B2 (priority 2006, dated 2013)

Tests used:
[1] = tested on: cancer cells PC-3 (prostate carcinoma); test: Mitochondria membranes of PC-3 cancer cells after incubation with preparation; assay type: cell-based; conditions: PC-3 cells, diluted to 10^−5 mmol/l, 72 hours at 37° C.
Experimental: A control group was also formed consisting of the same number of vials with the same components except cancer cells, and instead, fibroblasts were put in the group vials. After thermostatting for 72 hours at 37° C. the contents of the above vials was analyzed.

[2] = water and alcohol; from Mashkovskiy, Medications; cited from earlier work

| Structure (SMILES) | state of mitochondria membranes [1] | solubility [2] |
| --- | --- | --- |
| COc1cccc2c1C(=O)c1c(O)c3c(c(O)c1C2=O)C[C@@](O)(C(=O)CO)C[C@@H]3O[C@H]1C[C@H](N)[C@H](O)[C@H](C)O1 [adriamycin] | membrane swelling | – |
| O=c1[nH]cc(F)c(=O)[nH]1 [fluororacil] | – | poorly soluble in water and alcohol |
